Some test systems named below: HT29 colon; DU-145 prostate; BT-549 breast; HL-60(TB) leukemia; MDA-MB-435; HCT-15 colon; U251 CNS.
Holding throughout (assay): growth of human tumour cells (NCI), 48 h

Our source for the GI50 and TGI values is PubChem BioAssay (NCI).

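How tested: cells in 96-well plates exposed to compound for 48 hours at five concentrations. Abbreviation: GI50, concentration required for 50% inhibition of growth. At the TGI there is no net growth.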 Where only a bound is given, the exact number is not on record here.

For `NCCNc1nc2ccc(F)cc2c2c(=O)c3cc(F)ccc3sc12`, the GI50 in the assay on HT29 colon is 1.61 µM; in the assay on DU-145 prostate it was 1.9 µM; with BT-549 breast, 9.72 µM; with HL-60(TB) leukemia it was 2.28 µM; in the assay with MDA-MB-435, 1.77 µM; in the assay with HCT-15 colon, 1.78 µM. In the assay on U251 CNS, the GI50 was 1.76 µM. The TGI in the assay on HT29 colon turned out to be 3.06 µM; in the assay on DU-145 prostate, 3.39 µM; in the assay with BT-549 breast, 24.1 µM; in the assay on HL-60(TB) leukemia, 5.21 µM; in the assay on MDA-MB-435, 3.29 µM; in the assay on HCT-15 colon, 3.37 µM. Further, in the assay on U251 CNS, the TGI turned out to be 3.24 µM.
As for `NC1=CC(=O)C(=O)c2ccccc21`, the GI50 was 31.9 µM in the assay on HT29 colon; 17.9 µM in the assay on DU-145 prostate; 11.9 µM with HL-60(TB) leukemia; 1.84 µM in the assay on MDA-MB-435; 25.1 µM in the assay on HCT-15 colon; 19.3 µM in the assay on U251 CNS. Also, the TGI with HT29 colon was 94.3 µM; in the assay on DU-145 prostate it was 45.4 µM; with HL-60(TB) leukemia, 43.8 µM; in the assay with MDA-MB-435 it was 3.41 µM; with HCT-15 colon it was greater than 100 µM; with U251 CNS it was 46.4 µM.
As to `Cn1c(=S)c2[nH]c(SCc3cccnc3)nc2n(C)c1=O`, the TGI with HT29 colon, in the assay with DU-145 prostate, in the assay with BT-549 breast, in the assay on HL-60(TB) leukemia, in the assay with MDA-MB-435 and in the assay on HCT-15 colon was greater than 100 µM throughout. For the same molecule, the TGI in the assay on U251 CNS was greater than 100 µM.
For the molecule `CCC1C[N+]2=C(c3cc(OC)c(OC)cc3CC2)c2c1cc1n2CCc2cc(OC)c(OC)cc2-1` (stereo unspecified), the GI50 in the assay on HT29 colon is 3.23 µM; in the assay on DU-145 prostate, 5.37 µM; in the assay on BT-549 breast, 2.69 µM; in the assay on HL-60(TB) leukemia, 2.47 µM; in the assay on MDA-MB-435, 1.62 µM; in the assay on HCT-15 colon, 14 µM. Moreover, the GI50 with U251 CNS was 2.25 µM. The TGI in the assay on HT29 colon was found to be 20.3 µM; in the assay on DU-145 prostate, 36.8 µM; with BT-549 breast, 13.5 µM; with HL-60(TB) leukemia it was 10.1 µM; in the assay on MDA-MB-435 it was 6.09 µM; in the assay with HCT-15 colon, 34.7 µM. For the same molecule, the TGI in the assay with U251 CNS was 14.5 µM.
On to `COc1ccc(/C=N/C2=NNC(C)(c3ccccc3O)N2C(Cc2c[nH]c3ccccc23)C(=O)O)cc1` (stereo unspecified), for which the GI50 in the assay with HT29 colon is 2.36 µM; in the assay on DU-145 prostate, 4.13 µM; in the assay with BT-549 breast it was 2.24 µM; in the assay on HL-60(TB) leukemia, 2.28 µM; with MDA-MB-435, 1.7 µM; in the assay on HCT-15 colon, 2.81 µM. Moreover, in the assay on U251 CNS, the GI50 is 3.44 µM. The TGI in the assay on HT29 colon came out at 9.51 µM; in the assay on DU-145 prostate, 17.8 µM; in the assay with BT-549 breast it was 7.62 µM; in the assay on HL-60(TB) leukemia, 8.9 µM; in the assay with MDA-MB-435 it was 5.68 µM; in the assay with HCT-15 colon, 11.8 µM. Also, the TGI in the assay on U251 CNS is 11.6 µM.
As to `COc1ccc2cn3c4ccc(O)cc4[nH]c(=O)c3c2c1`, the GI50 was 0.273 µM with HT29 colon; 0.298 µM in the assay with DU-145 prostate; 3.34 µM in the assay on BT-549 breast; 0.111 µM with HL-60(TB) leukemia; 0.0248 µM in the assay with MDA-MB-435; 0.0438 µM in the assay on HCT-15 colon. Besides, the GI50 in the assay on U251 CNS was 0.153 µM. The TGI amounted to 2.85 µM in the assay with HT29 colon; 15.5 µM in the assay with DU-145 prostate; 18.1 µM in the assay with BT-549 breast; 13 µM with HL-60(TB) leukemia; 0.0692 µM in the assay with MDA-MB-435; 13.2 µM in the assay on HCT-15 colon. In addition, the TGI in the assay on U251 CNS came out at 12.4 µM.
For `C=C(C)C1Cc2cc(C(C)=O)ccc2O1` (stereo unspecified), the TGI in the assay with HT29 colon, with DU-145 prostate, in the assay on BT-549 breast, in the assay on HL-60(TB) leukemia, in the assay with MDA-MB-435 and in the assay with HCT-15 colon was greater than 100 µM in each case. The same molecule displayed a TGI with U251 CNS greater than 100 µM.
As for `Nc1n[nH]c2cc(F)c([C@@H]3Nc4c(F)cc5[nH]ncc5c4[C@H]4C5CCC(C5)[C@@H]34)cc12` (stereo partly specified), the GI50 is 0.119 µM in the assay on HT29 colon; 0.157 µM with DU-145 prostate; 0.103 µM in the assay on BT-549 breast; 0.1 µM in the assay on HL-60(TB) leukemia; 0.0727 µM with MDA-MB-435; 0.111 µM in the assay on HCT-15 colon. The GI50 with U251 CNS is 0.127 µM. In addition, the TGI is 5.39 µM in the assay with HT29 colon; 7.97 µM in the assay on DU-145 prostate; 1.37 µM in the assay on BT-549 breast; 0.317 µM with HL-60(TB) leukemia; 0.195 µM in the assay with MDA-MB-435; 3.69 µM with HCT-15 colon. This molecule also yielded a TGI in the assay with U251 CNS of 5.7 µM.
Consider `COc1ccc(C(=O)c2cc(C)c(OC)c(C)c2)c(OC)c1OC(=O)C(Cl)Cl`, for which the GI50 with HT29 colon was 3.44 µM; in the assay on DU-145 prostate, 0.0377 µM; in the assay with BT-549 breast, 0.0293 µM; in the assay with HL-60(TB) leukemia, 0.0251 µM; in the assay with HCT-15 colon, 0.0339 µM; in the assay on U251 CNS it was 0.0468 µM. Moreover, the TGI is greater than 49.8 µM in the assay on HT29 colon; 4.8 µM in the assay on DU-145 prostate; 1.7 µM in the assay on BT-549 breast; 0.0719 µM in the assay with HL-60(TB) leukemia; greater than 100 µM with HCT-15 colon; greater than 100 µM in the assay with U251 CNS.
Regarding `CCSc1nnc(-c2ccc3ccccc3c2O)n1-c1ccccc1`, the GI50 in the assay with DU-145 prostate is greater than 100 µM; with BT-549 breast, greater than 100 µM; in the assay with HL-60(TB) leukemia, greater than 100 µM; in the assay on HCT-15 colon, 2.72 µM. In addition, the TGI in the assay with DU-145 prostate, in the assay with BT-549 breast, with HL-60(TB) leukemia and with HCT-15 colon was greater than 100 µM in each case.
As to `O=C1c2ccccc2-c2c1c1ccc([N+](=O)[O-])cc1c(=O)n2CCN1CCOCC1`, the GI50 was greater than 100 µM with HT29 colon; 61 µM in the assay with DU-145 prostate; greater than 100 µM in the assay with MDA-MB-435; greater than 100 µM with HCT-15 colon; 49.6 µM in the assay with U251 CNS. For the same molecule, the TGI with HT29 colon, with DU-145 prostate, in the assay with MDA-MB-435, in the assay with HCT-15 colon and in the assay on U251 CNS was greater than 100 µM each time.
As to `O=C(/C=C/c1cc(O)ccc1O)c1ccc(Cl)cc1`, the GI50 in the assay on HT29 colon was 54.4 µM; in the assay with BT-549 breast it was 25.9 µM; in the assay with MDA-MB-435 it was 30 µM; in the assay on HCT-15 colon, 28 µM; in the assay with U251 CNS, 19.6 µM. For the same molecule, the TGI was greater than 100 µM with HT29 colon; 51.8 µM in the assay with BT-549 breast; greater than 100 µM in the assay on MDA-MB-435; greater than 100 µM with HCT-15 colon; 51.2 µM in the assay on U251 CNS.
